# Assay results taken from PubChem BioAssay AID1963441 (Molecular Pharmacology Branch, DTP, NCI, 2024).
# Values joined by “and” are separate entries in the source; they are usually repeats but may differ in a detail not shown here. Equal entries are not always repeated.
# Test system: NCI-H1876 complex spheroid growth, % test/control
# Experiment: Anticancer human tumor NCI-H1876 cell line growth inhibition [Asc];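 also: compound exposure lasted 7 days starting three days after seeding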;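 as to viability, T/C: 100% = DMSO vehicle control wells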
# Conditions: for viability, T/C: stronger effect = lower value
# How it was run: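 Concentration series start at each agent's clinical Cmax, or at 10 microM when none is established, and drop in half-log steps; agents are applied alone or together to complex spheroids built with HUVEC and hMSC.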
compound,measurement,setting,value
Cn1ncnc1[C@H]1c2n[nH]c(=O)c3cc(F)cc(c23)N[C@@H]1c1ccc(F)cc1 + CCN1C(C(=O)NC23CCC(C(=O)O)(CC2)CC3)C(c2cccc(Cl)c2F)C2(C(=O)Nc3cc(Cl)ccc32)C12CCCCC2,IC50,"curve of first compound, second compound 0.00949 µM",> 0.1 µM
same,IC50,"curve of first compound, second compound 0.03 µM",> 0.1 µM
same,IC50,"curve of first compound, second compound 0.0949 µM",> 0.1 µM
same,IC50,"curve of first compound, second compound 0.3 µM",> 0.1 µM
same,IC50,"curve of first compound, second compound 0.949 µM",> 0.1 µM
same,IC50,"curve of first compound, second compound 3 µM",> 0.1 µM
same,"viability, T/C","second compound 0.00949 µM, first compound 0.000316 µM",123%
same,"viability, T/C","second compound 0.00949 µM, first compound 0.001 µM",89.9%
same,"viability, T/C","second compound 0.00949 µM, first compound 0.00316 µM",113%
same,"viability, T/C","second compound 0.00949 µM, first compound 0.01 µM",102%
same,"viability, T/C","second compound 0.00949 µM, first compound 0.0316 µM",100%
same,"viability, T/C","second compound 0.00949 µM, first compound 0.1 µM",91.6%
same,"viability, T/C","second compound 0.03 µM, first compound 0.000316 µM",100%
same,"viability, T/C","second compound 0.03 µM, first compound 0.001 µM",102%
same,"viability, T/C","second compound 0.03 µM, first compound 0.00316 µM",107%
same,"viability, T/C","second compound 0.03 µM, first compound 0.01 µM",92.6%
same,"viability, T/C","second compound 0.03 µM, first compound 0.0316 µM",106%
same,"viability, T/C","second compound 0.03 µM, first compound 0.1 µM",95.4%
same,"viability, T/C","second compound 0.0949 µM, first compound 0.000316 µM",101%
same,"viability, T/C","second compound 0.0949 µM, first compound 0.001 µM",99.4%
same,"viability, T/C","second compound 0.0949 µM, first compound 0.00316 µM",111%
same,"viability, T/C","second compound 0.0949 µM, first compound 0.01 µM",104%
same,"viability, T/C","second compound 0.0949 µM, first compound 0.0316 µM",113%
same,"viability, T/C","second compound 0.0949 µM, first compound 0.1 µM",89%
same,"viability, T/C","second compound 0.3 µM, first compound 0.000316 µM",103%
same,"viability, T/C","second compound 0.3 µM, first compound 0.001 µM",120%
same,"viability, T/C","second compound 0.3 µM, first compound 0.00316 µM",111%
same,"viability, T/C","second compound 0.3 µM, first compound 0.01 µM",114%
same,"viability, T/C","second compound 0.3 µM, first compound 0.0316 µM",110%
same,"viability, T/C","second compound 0.3 µM, first compound 0.1 µM",98.3%
same,"viability, T/C","second compound 0.949 µM, first compound 0.000316 µM",118%
same,"viability, T/C","second compound 0.949 µM, first compound 0.001 µM",134%
same,"viability, T/C","second compound 0.949 µM, first compound 0.00316 µM",117%
same,"viability, T/C","second compound 0.949 µM, first compound 0.01 µM",134%
same,"viability, T/C","second compound 0.949 µM, first compound 0.0316 µM",123%
same,"viability, T/C","second compound 0.949 µM, first compound 0.1 µM",91.6%
same,"viability, T/C","second compound 3 µM, first compound 0.000316 µM",103%
same,"viability, T/C","second compound 3 µM, first compound 0.001 µM",105%
same,"viability, T/C","second compound 3 µM, first compound 0.00316 µM",81.3%
same,"viability, T/C","second compound 3 µM, first compound 0.01 µM",95.5%
same,"viability, T/C","second compound 3 µM, first compound 0.0316 µM",95.2%
same,"viability, T/C","second compound 3 µM, first compound 0.1 µM",95.5%
C=C(F)C(=O)N1CCN(c2nc(OCC3CCCN3C)nc3c2CCN(c2cccc4cccc(Cl)c24)C3)CC1CC#N (stereo not given),"viability, T/C",compound 0.0316 µM,94.3% and 102% and 97.8%
same,"viability, T/C",compound 0.1 µM,97.6% and 92.2% and 89.2%
same,"viability, T/C",compound 0.316 µM,101% and 95.3% and 93%
same,"viability, T/C",compound 1 µM,108% and 93% and 105%
same,"viability, T/C",compound 3.16 µM,98% and 90.9% and 102%
same,IC50,curve of compound,5.59 µM and 6 µM and 6.86 µM
Cc1nc(N2CCC3(CC2)COC(C)C3N)c(CO)nc1Sc1ccnc(N)c1Cl (stereo not given) + Cc1c(S(C)(=O)=O)c(-c2cc(F)cc(N3CCN(c4ccc(NS(=O)(=O)c5ccc(NC(CCN6CCC(C(=O)OCCCP(=O)(O)O)CC6)CSc6ccccc6)c(S(=O)(=O)C(F)(F)F)c5)cc4)CC3)c2)c(-c2ccc(Cl)cc2)n1C(C)C,IC50,"curve of first compound, second compound 0.0316 µM",> 3 µM
same,IC50,"curve of first compound, second compound 0.1 µM",> 3 µM
same,IC50,"curve of first compound, second compound 0.316 µM",> 3 µM
same,IC50,"curve of first compound, second compound 1 µM",> 3 µM
same,IC50,"curve of first compound, second compound 3.16 µM",> 3 µM
same,IC50,"curve of first compound, second compound 10 µM",> 3 µM
same,"viability, T/C","second compound 0.0316 µM, first compound 0.00949 µM",106%
same,"viability, T/C","second compound 0.0316 µM, first compound 0.03 µM",86.8%
same,"viability, T/C","second compound 0.0316 µM, first compound 0.0949 µM",90.2%
same,"viability, T/C","second compound 0.0316 µM, first compound 0.3 µM",78.7%
same,"viability, T/C","second compound 0.0316 µM, first compound 0.949 µM",83.2%
same,"viability, T/C","second compound 0.0316 µM, first compound 3 µM",79.4%
same,"viability, T/C","second compound 0.1 µM, first compound 0.00949 µM",95.7%
same,"viability, T/C","second compound 0.1 µM, first compound 0.03 µM",101%
same,"viability, T/C","second compound 0.1 µM, first compound 0.0949 µM",93.7%
same,"viability, T/C","second compound 0.1 µM, first compound 0.3 µM",88%
same,"viability, T/C","second compound 0.1 µM, first compound 0.949 µM",84.2%
same,"viability, T/C","second compound 0.1 µM, first compound 3 µM",82.6%
same,"viability, T/C","second compound 0.316 µM, first compound 0.00949 µM",81.8%
same,"viability, T/C","second compound 0.316 µM, first compound 0.03 µM",89.7%
same,"viability, T/C","second compound 0.316 µM, first compound 0.0949 µM",92.2%
same,"viability, T/C","second compound 0.316 µM, first compound 0.3 µM",75.7%
same,"viability, T/C","second compound 0.316 µM, first compound 0.949 µM",88.4%
same,"viability, T/C","second compound 0.316 µM, first compound 3 µM",81.6%
same,"viability, T/C","second compound 1 µM, first compound 0.00949 µM",94.2%
same,"viability, T/C","second compound 1 µM, first compound 0.03 µM",92%
same,"viability, T/C","second compound 1 µM, first compound 0.0949 µM",81.5%
same,"viability, T/C","second compound 1 µM, first compound 0.3 µM",83.8%
same,"viability, T/C","second compound 1 µM, first compound 0.949 µM",93.7%
same,"viability, T/C","second compound 1 µM, first compound 3 µM",74.2%
same,"viability, T/C","second compound 3.16 µM, first compound 0.00949 µM",90.1%
same,"viability, T/C","second compound 3.16 µM, first compound 0.03 µM",88.7%
same,"viability, T/C","second compound 3.16 µM, first compound 0.0949 µM",83.7%
same,"viability, T/C","second compound 3.16 µM, first compound 0.3 µM",84.9%
same,"viability, T/C","second compound 3.16 µM, first compound 0.949 µM",83.3%
same,"viability, T/C","second compound 3.16 µM, first compound 3 µM",80.7%
same,"viability, T/C","second compound 10 µM, first compound 0.00949 µM",103%
same,"viability, T/C","second compound 10 µM, first compound 0.03 µM",88.8%
same,"viability, T/C","second compound 10 µM, first compound 0.0949 µM",85.3%
same,"viability, T/C","second compound 10 µM, first compound 0.3 µM",92.4%
same,"viability, T/C","second compound 10 µM, first compound 0.949 µM",96.7%
same,"viability, T/C","second compound 10 µM, first compound 3 µM",70.3%
